Target: HDM2 protein (Homo sapiens, UniProt Q00987)
Experiment: fluorescence polarization screening assay (FP IC50)
Format: binding
Conditions: class symbols
Procedure: The compounds were evaluated to determine activity at the HDM2 protein by known methods such as the fluorescence polarization screening assay that measures the inhibitory concentration that achieves 50% of maximal activity (FP IC50) and the dissociation constant for inhibitor binding (FP Ki). [Zhang et al., J. Analytical Biochemistry 331: 138-146 (2004)].

HDM2 protein, sequence (Q00987 whole entry): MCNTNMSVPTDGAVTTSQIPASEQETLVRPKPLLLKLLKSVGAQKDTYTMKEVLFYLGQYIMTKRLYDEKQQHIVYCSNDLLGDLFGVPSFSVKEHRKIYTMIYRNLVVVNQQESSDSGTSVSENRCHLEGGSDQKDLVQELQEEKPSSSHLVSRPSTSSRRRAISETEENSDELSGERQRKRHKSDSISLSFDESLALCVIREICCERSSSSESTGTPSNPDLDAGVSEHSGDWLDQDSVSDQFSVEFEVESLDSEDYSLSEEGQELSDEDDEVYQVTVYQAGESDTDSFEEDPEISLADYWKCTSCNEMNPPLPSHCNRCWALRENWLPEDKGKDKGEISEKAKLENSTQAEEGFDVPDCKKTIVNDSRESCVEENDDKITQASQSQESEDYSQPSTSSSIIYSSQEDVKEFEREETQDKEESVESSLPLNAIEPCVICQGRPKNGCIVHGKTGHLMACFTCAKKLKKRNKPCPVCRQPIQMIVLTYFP

Row | SMILES | IC50 [nM]
1 | CCC[C@H]1N(C(=O)c2ncccc2C(F)(F)F)CCC[C@@]1(Oc1csc(C(F)(F)F)c1)C(=O)N1CCc2cc(Br)ccc2C1CCC(=O)O (stereo partly drawn) [Compound A58, 3-(6-bromo-2-{[(2R,3S)-2-propyl-1-{[3-(trifluoromethyl)pyridin-2-yl]carbonyl}-3-{[5-(trifluoromethyl)thiophen-3-yl]oxy}piperidin-3-yl]carbonyl}-1,2,3,4-tetrahydroisoquinolin-1-yl)propanoic acid] | 1 to 100
2 | CCC[C@H]1N(C(=O)c2ncccc2C(F)(F)F)CCC[C@@]1(Oc1csc(C(F)(F)F)c1)C(=O)N1CCc2sc(Cl)cc2C1CCC(=O)NC (stereo partly drawn) [Compound A27, 3-(2-chloro-5-{[(2R,3S)-2-propyl-1-{[3-(trifluoromethyl)pyridin-2-yl]carbonyl}-3-{[5-(trifluoromethyl)thiophen-3-yl]oxy}piperidin-3-yl]carbonyl}-4,5,6,7-tetrahydrothieno[3,2-c]pyridin-4-yl)-N-methylpropanamide] | 101 to 20000
3 | CCC[C@H]1N(C(=O)c2ncccc2C(F)(F)F)CCC[C@@]1(Oc1csc(C(F)(F)F)c1)C(=O)N1CCc2cc(-c3ccccc3)ccc2C1 [Compound A62, 6-phenyl-2-{[(2R,3S)-2-propyl-1-{[3-(trifluoromethyl)pyridin-2-yl]carbonyl}-3-{[5-(trifluoromethyl)thiophen-3-yl]oxy}piperidin-3-yl]carbonyl}-1,2,3,4-tetrahydroisoquinoline] | 101 to 20000
4 | CCC[C@H]1N(C(=O)c2ncccc2C(F)(F)F)CCC[C@@]1(Oc1csc(C(F)(F)F)c1)C(=O)N1CCc2cc(OC)ccc2C1 [Compound A47, 6-methoxy-2-{[(2R,3S)-2-propyl-1-{[3-(trifluoromethyl)pyridin-2-yl]carbonyl}-3-{[5-(trifluoromethyl)thiophen-3-yl]oxy}piperidin-3-yl]carbonyl}-1,2,3,4-tetrahydroisoquinoline] | 101 to 20000
5 | CCC[C@H]1N(C(=O)c2ncccc2C(F)(F)F)CCC[C@@]1(Oc1csc(C(F)(F)F)c1)C(=O)N1CCc2cc(Cl)ccc2C1(CCO)C(N)=O (stereo partly drawn) [Compound A109, 6-chloro-1-(2-hydroxyethyl)-2-{[(2R,3S)-2-propyl-1-{[3-(trifluoromethyl)pyridin-2-yl]carbonyl}-3-{[5-(trifluoromethyl)thiophen-3-yl]oxy}piperidin-3-yl]carbonyl}-1,2,3,4-tetrahydroisoquinoline-1-carboxamide] | 1 to 100
6 | CCC[C@H]1N(C(=O)c2ncccc2C(F)(F)F)CCC[C@@]1(Oc1csc(C(F)(F)F)c1)C(=O)N1CCc2cc(F)ccc2C1C(=O)O (stereo partly drawn) [Compound A101, 6-fluoro-2-{[(2R,3S)-2-propyl-1-{[3-(trifluoromethyl)pyridin-2-yl]carbonyl}-3-{[5-(trifluoromethyl)thiophen-3-yl]oxy}piperidin-3-yl]carbonyl}-1,2,3,4-tetrahydroisoquinoline-1-carboxylic acid] | 1 to 100

Other lines, results leading:

Row | IC50 [nM] | SMILES
7 | 1 to 100 | CCC[C@H]1N(C(=O)c2ncccc2C(F)(F)F)CCC[C@@]1(Oc1csc(C(F)(F)F)c1)C(=O)N1CCc2cc(Br)ccc2C1CC(=O)O (stereo partly drawn) [Compound A72, (6-bromo-2-{[(2R,3S)-2-propyl-1-{[3-(trifluoromethyl)pyridin-2-yl]carbonyl}-3-{[5-(trifluoromethyl)thiophen-3-yl]oxy}piperidin-3-yl]carbonyl}-1,2,3,4-tetrahydroisoquinolin-1-yl)acetic acid]
8 | 1 to 100 | CCC[C@H]1N(C(=O)c2ncccc2C(F)(F)F)CCC[C@@]1(Oc1csc(C(F)(F)F)c1)C(=O)N1CCc2cc(Cl)ccc2[C@H]1CCC(=O)N1CCN(CCO)CC1 [Compound A91, 2-(4-{3-[(1R)-6-chloro-2-{[(2R,3S)-2-propyl-1-{[3-(trifluoromethyl)pyridin-2-yl]carbonyl}-3-{[5-(trifluoromethyl)thiophen-3-yl]oxy}piperidin-3-yl]carbonyl}-1,2,3,4-tetrahydroisoquinolin-1 - yl]propanoyl}piperazin-1-yl)ethanol]
9 | 1 to 100 | CCC[C@H]1N(C(=O)c2ncccc2C(F)(F)F)CCC[C@@]1(Oc1ccc(OC(F)(F)F)cc1)C(=O)N1CCc2cc(Cl)ccc2[C@@H]1CCC(=O)O [Compound A111]

Source: patent US9062071B2, “Substituted piperidines as HDM2 inhibitors” (Merck Sharp & Dohme Corp, priority 2011, dated 2015)
